Measured values reported in PMC4601640, “Stability of the Human Hsp90-p50^Cdc37 Chaperone Complex against Nucleotides and Hsp90 Inhibitors, and the Influence of Phosphorylation by Casein Kinase 2” (Molecules, 2015).
“Also recorded” adds a separate entry of the source.

Assays:
hΔHsp90β = biological target: T1, hΔHsp90β (Homo sapiens, UniProt P08238, DEL220-271/E274G/I272G/K273G/K275G); assay: ITC direct binding to Hsp90β deletion mutant lacking the charged linker; details: 50 mM HEPES pH 7.5, 10 mM MgCl2, 30 °C, read-out: Observed Kd
T1 construct: human Hsp90β (1-724 Δ220-275); His6 (N); made in house; host or cells: E. coli BL21 Star (DE3)
Source text: The gene encoding human full-length Hsp90β was subcloned from T47D cell line cDNA, and human full-length CK2α was subcloned from MCF7 cell line cDNA, both a kind gift from Dr. Jonathan Lancaster, Moffitt Cancer Center. […] The deleted sections in the two Hsp90 genes were each replaced by four glycine residues. Hsp90α and Hsp90β were subcloned into the pET28a vector (Novagen), and p50^Cdc37 was subcloned into a modified pET28a vector containing a maltose-binding protein (MBP) solubility tag and a PreScission protease cleavage site using restriction enzymes BamHI and NotI (Fermentas) and T4 DNA ligase (Invitrogen) following the manufacturers’ instructions. BamHI was substituted with NdeI for full-length Hsp90β. p50^Cdc37 was also subcloned into the pGEX6P-1 vector (GE Healthcare) using the same procedure as above to provide an N-terminal GST-tag for GST pull-down and ELISA experiments. The plasmids were transformed into E. coli BL21 Star (DE3) (Hsp90α and Hsp90β, Invitrogen), Tuner (DE3) (p50^Cdc37 modified pET28a, Novagen), or BL21 (DE3) (p50^Cdc37 pGEX6P-1, Stratagene) expression strains. Transformed cells were grown in LB broth at 37 °C until the OD600 reached 0.4, then the temperature was lowered to 16 °C, and cells were induced with 0.1 mM IPTG at OD600 = 0.5–0.7. Cultures were then grown for 20–24 h before harvesting by centrifugation (30 min at 30,000× g, 4 °C).
(§1) Binding of p50^Cdc37 and small molecules to Hsp90 was analyzed using a MicroCal iTC200 titration calorimeter (GE Healthcare). Compounds or p50^Cdc37 were titrated into a solution of Hsp90 using the following concentrations: p50^Cdc37 (200 µM) into Hsp90 (20 µM), nucleotides (600 µM) into Hsp90 (30 µM), inhibitors (300 µM) into Hsp90 (30 µM). […] All experiments were conducted in 50 mM HEPES pH 7.5, 10 mM MgCl2 at 30 °C. For titration of inhibitors, the buffer contained 5% DMSO. […] Generation of heat due to dilution was determined in separate experiments by diluting protein into buffer and subtracting these as blank values for each injection. Corrected heat values were fitted using a nonlinear least squares curve-fitting algorithm (Microcal Origin 7.0) to obtain the stoichiometry (n), binding constants (Ka, Kd), and change in enthalpy for each enzyme-ligand interaction (ΔH).

hHsp90β-N = biological target: T2, hHsp90β-N (Homo sapiens, UniProt P08238); assay: ITC direct binding to N-terminal domain of Hsp90β; details: 30 °C, read-out: Observed Kd
T2 construct: human N-terminal Hsp90β (1-219, denoted Hsp90β-N); His6 (N); made in house; host or cells: E. coli BL21 Star (DE3)
Source text: The gene encoding human full-length Hsp90β was subcloned from T47D cell line cDNA, and human full-length CK2α was subcloned from MCF7 cell line cDNA, both a kind gift from Dr. Jonathan Lancaster, Moffitt Cancer Center. The genes encoding the deletion mutants human Hsp90α (1-732 Δ226-283), human Hsp90β (1-724 Δ220-275), human N-terminal Hsp90β (1-219, denoted Hsp90β-N), and human full-length p50^Cdc37 (residues 1-378) were synthesized by GeneArt AG with optimized codon usage for E. coli expression. The deleted sections in the two Hsp90 genes were each replaced by four glycine residues. […]
Binding of p50^Cdc37 and small molecules to Hsp90 was analyzed using a MicroCal iTC200 titration calorimeter (GE Healthcare). […] Typically, an initial 0.5 µL injection was followed by 19 injections of 2.2 µL of syringe solution (compound or p50^Cdc37) into a 200 µL protein solution of Hsp90 constantly stirred at 1000 rpm, and data were recorded for 180 s between injections. Generation of heat due to dilution was determined in separate experiments by diluting protein into buffer and subtracting these as blank values for each injection. […]

yHsp82-FL = yHsp82-FL with human p50^Cdc37; ref [30]; read-out: Reported Kd; cited from earlier work
ΔHsp90-p50^Cdc37 = biological target: T3, ΔHsp90-p50^Cdc37 (Homo sapiens, UniProt P08238, DEL220-271/E274G/I272G/K273G/K275G); assay: ELISA complex formation, ΔHsp90; assay type: binding
T3 construct: human Hsp90β (1-724 Δ220-275); made in house; host or cells: E. coli BL21 Star (DE3) (ΔHsp90β); E. coli BL21 (DE3) (GST-p50Cdc37)

(p)Hsp90-p50^Cdc37 = (p)Hsp90-p50^Cdc37 (Homo sapiens, UniProt P08238); assay: ELISA complex formation, CK2-phosphorylated Hsp90β
Method: (§2) Phosphorylation of full-length Hsp90β and p50^Cdc37 was performed using purified full-length CK2α. The reaction was carried out in a 2.5 mL volume containing 50 µM Hsp90β or p50^Cdc37, 0.5 µM CK2α, 0.5 mM ATP, 20 mM Tris (pH 7.5), 50 mM KCl, and 10 mM MgCl2, and was incubated for 1 h at 30 °C. Samples were removed for analysis of phosphorylation status, and the proteins were re-buffered into 50 mM HEPES (pH 7.5), 150 mM NaCl, and 1 mM DTT (ELISA), or into 50 mM HEPES (pH 7.5) for ITC, using PD-10 gravity columns (GE Healthcare). Dephosphorylation was performed using 2.5 units of FastAP (alkaline phosphatase from Thermo Scientific) in buffer containing 10 mM Tris (pH 8.0 at 37 °C), 5 mM MgCl2, 100 mM KCl, 0.02% Triton-X 100, and 0.5 mg/mL BSA for 1 h at 37 °C.
(§3) Purified GST-p50^Cdc37 (4 µM) or control (purified GST alone, 4 µM) was added to glutathione-coated 96-well plates (Pierce) in 100 μL protein buffer (50 mM HEPES, pH 7.5, 150 mM NaCl, 10 mM MgCl2, 0.05% Tween-20, and 0.1% BSA) and incubated for 1 h at room temperature (triplicate wells per sample). […] The mixtures were then added to the wells (100 μL per well, in triplicates) and incubated for 1 h at room temperature before washing. The wells were incubated with anti-His6-tag mAb (1 mg/mL stock, Abcam), diluted 1:2000 in antibody buffer (50 mM HEPES pH 7.5, 150 mM NaCl, 10 mM MgCl2, 0.05% Tween-20, and 1% BSA) for 1 h, followed by secondary antibody (horse anti-mouse HRP-conjugated IgG, Cell Signaling Technology), diluted 1:5000 in antibody buffer, for 1.5 h at room temperature. After washing three times with 1× HBS-T and two times with 1× HBS, 200 μL HRP substrate (SigmaFast OPD) was added per well. The plates were incubated at room temperature, and the absorbance was read at 450 nm after 15 min and 30 min using a SpectraMax 340 PC plate reader (Molecular Devices). For dose-response measurements, absorption values were corrected for unspecific binding of Hsp90 to immobilized GST, and the raw data were fit to equation (1), where f(I) is the fraction of complex remaining, [I] is the concentration of the inhibitor, IC50 is the half maximal inhibitory concentration against Hsp90-p50^Cdc37 complex formation, n is the Hill slope coefficient, min is the signal remaining at high inhibitor concentrations and max is the signal of the uninhibited complex. Corrected absorption values (ΔOD) for the uninhibited Hsp90-p50^Cdc37 complex (unphosphorylated and phosphorylated) were in the range of 0.4–1.0. Data were expressed relative to the respective max value of Equation (1). (1) f(I)=min+(max−min)/1+([I]/IC50)^n

hHsp90β-FL = biological target: T4, hHsp90β-FL (Homo sapiens, UniProt P08238); assay: ITC direct binding to full-length Hsp90β; details: Figure 3
T4 construct: The gene encoding human full-length Hsp90β was subcloned from T47D cell line cDNA; His6 (N); made in house; host or cells: E. coli BL21 Star (DE3)
Method: as §1

(p)Hsp90-(p)p50^Cdc37 = (p)Hsp90-(p)p50^Cdc37 (Homo sapiens, UniProt P08238); assay: biochemical
Method: as §2, §3

Hsp90-p50^Cdc37 = biological target: T5, Hsp90-p50^Cdc37 (Homo sapiens, UniProt P08238); assay: ELISA complex formation, immobilized GST-p50^Cdc37 and Hsp90β, unphosphorylated; assay type: binding
T5 construct: The gene encoding human full-length Hsp90β was subcloned from T47D cell line cDNA; made in house; host or cells: E. coli BL21 Star (DE3) (Hsp90β); E. coli BL21 (DE3) (GST-p50Cdc37)

[1] = biological target: T6, ΔHsp90β interaction with GST-p50^Cdc37 (Homo sapiens, UniProt P08238, DEL220-271/E274G/I272G/K273G/K275G); assay: GST pull-down of ΔHsp90β with GST-p50^Cdc37; assay type: binding
T6 construct: human Hsp90β (1-724 Δ220-275); made in house; host or cells: E. coli BL21 Star (DE3) (ΔHsp90β); E. coli BL21 (DE3) (GST-p50Cdc37)
Method: GST pull-down experiments were carried out using 1 mL GST 4 FastFlow resin in 8 mL Flex columns (Kontes). All experiments were performed at room temperature by gravity flow. Loading and wash buffers contained 50 mM Tris pH 8, 50 mM KCl, 5 mM MgCl2, and 5% DMSO. The elution buffer contained an additional 10 mM reduced glutathione. […] The resin was washed with 20 CV wash buffer, and samples were eluted with 2 CV elution buffer. Eluted protein was analysed on 12% SDS-PAGE stained with Coomassie blue for visualization.

T6 sequence (P08238 with tags, fused parts or gaps DEL220-271/I272G/K273G/E274G/K275G): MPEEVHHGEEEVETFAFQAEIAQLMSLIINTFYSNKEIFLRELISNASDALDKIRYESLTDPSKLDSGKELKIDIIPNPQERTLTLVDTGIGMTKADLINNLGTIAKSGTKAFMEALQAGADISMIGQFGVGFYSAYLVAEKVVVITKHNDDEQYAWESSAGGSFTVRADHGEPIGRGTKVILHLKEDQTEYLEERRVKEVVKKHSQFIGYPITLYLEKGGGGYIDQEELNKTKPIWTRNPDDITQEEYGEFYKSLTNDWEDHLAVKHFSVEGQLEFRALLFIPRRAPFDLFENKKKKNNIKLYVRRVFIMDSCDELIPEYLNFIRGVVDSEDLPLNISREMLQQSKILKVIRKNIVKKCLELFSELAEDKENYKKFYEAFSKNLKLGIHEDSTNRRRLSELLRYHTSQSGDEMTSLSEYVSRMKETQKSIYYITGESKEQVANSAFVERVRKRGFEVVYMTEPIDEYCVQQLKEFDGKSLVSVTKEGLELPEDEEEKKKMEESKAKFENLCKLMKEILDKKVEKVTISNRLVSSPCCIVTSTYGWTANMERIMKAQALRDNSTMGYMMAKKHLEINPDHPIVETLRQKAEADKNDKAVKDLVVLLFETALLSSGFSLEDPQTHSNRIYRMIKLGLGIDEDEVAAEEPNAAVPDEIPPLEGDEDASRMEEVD
T3 sequence (P08238 with tags, fused parts or gaps DEL220-271/I272G/K273G/E274G/K275G): as above
T1 sequence (P08238 with tags, fused parts or gaps DEL220-271/I272G/K273G/E274G/K275G): as above
T2 sequence (P08238 1-219): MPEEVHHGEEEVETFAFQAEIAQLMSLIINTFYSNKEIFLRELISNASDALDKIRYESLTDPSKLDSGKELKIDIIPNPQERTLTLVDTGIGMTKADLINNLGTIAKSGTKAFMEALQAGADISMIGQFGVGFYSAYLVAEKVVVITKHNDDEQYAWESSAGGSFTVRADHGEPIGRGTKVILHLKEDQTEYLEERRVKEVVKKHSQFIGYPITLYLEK
(p)Hsp90-p50^Cdc37, sequence (P08238 whole entry): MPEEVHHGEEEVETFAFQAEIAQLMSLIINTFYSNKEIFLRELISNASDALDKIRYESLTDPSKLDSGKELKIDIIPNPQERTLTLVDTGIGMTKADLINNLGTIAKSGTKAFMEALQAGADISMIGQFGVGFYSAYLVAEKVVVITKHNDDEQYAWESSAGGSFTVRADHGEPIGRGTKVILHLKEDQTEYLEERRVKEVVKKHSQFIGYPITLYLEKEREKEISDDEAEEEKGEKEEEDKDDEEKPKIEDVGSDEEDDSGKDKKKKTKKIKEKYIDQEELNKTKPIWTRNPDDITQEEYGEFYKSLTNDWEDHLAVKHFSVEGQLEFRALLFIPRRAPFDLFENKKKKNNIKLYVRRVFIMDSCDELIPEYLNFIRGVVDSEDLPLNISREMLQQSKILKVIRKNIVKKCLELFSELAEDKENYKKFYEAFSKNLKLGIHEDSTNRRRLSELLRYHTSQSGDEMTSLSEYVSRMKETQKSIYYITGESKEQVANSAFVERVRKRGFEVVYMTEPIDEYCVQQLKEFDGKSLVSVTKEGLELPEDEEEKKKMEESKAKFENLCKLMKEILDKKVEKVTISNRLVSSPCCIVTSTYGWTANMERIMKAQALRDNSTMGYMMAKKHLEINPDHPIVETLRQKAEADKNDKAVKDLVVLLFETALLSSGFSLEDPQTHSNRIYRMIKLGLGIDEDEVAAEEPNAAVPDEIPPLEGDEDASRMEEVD
(p)Hsp90-(p)p50^Cdc37, sequence (P08238 whole entry): as above

Compound | Kd (hΔHsp90β) [µM] | Kd (hHsp90β-N) [µM] | Kd (yHsp82-FL) [µM] | IC50 (ΔHsp90-p50^Cdc37) [µM] | IC50 ((p)Hsp90-p50^Cdc37) [µM] | binding potential towards Hsp90β (hHsp90β-FL) | IC50 ((p)Hsp90-(p)p50^Cdc37) [µM] | IC50 (Hsp90-p50^Cdc37; ELISA, Hsp90-p50^Cdc37 (unphosphorylated)) [µM] | inhibitory activity against the complex (Hsp90-p50^Cdc37; unphosphorylated or phosphorylated complex, in vitro) | effect on complex in GST pull-down ([1]; 1 mM nucleotide or 0.1 mM inhibitor, 15 min incubation, SDS-PAGE) | protection of the complex from ADP in GST pull-down competition ([1]; in the presence of ADP, 0.1 mM radicicol)
p50^Cdc37: human full-length co-chaperone protein p50^Cdc37 (residues 1-378), unphosphorylated | 1.1 | 4.4 | 1.5 |  |  |  |  |  |  |  | 
CC(=O)O[C@@H]1C[C@H]2C(C)(C)C(=O)C=C[C@]2(C)[C@H]2CC[C@@]3(C)[C@H](c4ccoc4)OC(=O)[C@H]4O[C@]43[C@@]21C [Gedunin] |  |  |  | > 1000 | > 1000 | failed to display binding potential | > 1000 | > 1000 | did not show appreciable inhibitory activity; also recorded: did not affect the interaction of Hsp90 with p50^Cdc37 in vitro | ineffective | had no effect
